Results published in patent US20190144368A1, “Compounds and compositions for biofilm prevention” (INHIBIO AS, priority 2016, published 2019).
Entries after “also recorded” stand apart in the source; their conditions may differ.

Key:
[1] = tested on: S. Agona and E. coli (one strain each); test: Biofilm formed on stainless steel coupons by Gram negative bacteria (CFU count); type: cell-based, Salmonella ser. Agona, Escherichia coli; conditions: 20 °C for 72 hours
Protocol: One strain of S. Agona (FIG. 10) and one strain of E. coli (FIG. 10) was used in this study. The study was performed using 1,3-cyclohexanedione in a concentration of 1 and 10 mg/ml. The strain was stored at −80° C. in BHI (Difco, BD, Franklin Lakes, N.J., USA) supplemented with 15% glycerine (Merck KGaA, Darmstadt, Germany) and was recovered on blood agar at 37.0±1.0° C. The bacterial culture was then transferred into LB broth and was incubated statically overnight at 37.0±1.0° C. to obtain an overnight working culture. The Inhibio compound was dissolved in LB^wo/NaCl to a concentration of 10 mg/ml and then further diluted to a concentration of 1 mg/ml. 10 ml of each solution was added to a 50 ml Falcon tube and, in a third tube, only LB broth^wo/NaCl was added as a control. […]
Following incubation, each coupon was dipped three times in three different tubes containing physiological saline and further transferred to a tube containing 5 ml cold physiological saline as well as 20 sterile silica glass beads. […] After incubation, the bacterial colonies were counted. […]
The Colony forming units (CFU) on the plate was calculated into CFU in biofilm by multiplying with a factor for each dilution. Further, the log value was calculated of the average of each dilution.

[2] = tested on: Listeria monocytogenes (six strains); test: Biofilm formation in microtiter plates, Listeria; type: cell-based; conditions: 24 hours at 35 °C
Protocol: Six strains of Listeria monocytogenes were used in this study isolated from food research. The strains were recovered in 200 μl TSB broth in a microtiter plate and incubated at 37° C. for 24 hours. A total of 5 μl of the bacterial suspension was transferred to a 96 wells polystyrene microtiter plate (Thermo scientific Nucleon Delta surface) together with 200 μl medium (LB^wo/NaCl) with 1,3-cyclohexanedione (dissolved to 0,625 mg/ml, 2.5 mg/ml, 5 mg/ml and 10 mg/ml) to each well. Each strain was added in duplex and incubated at 35° C. for 24 hours. After incubation, OD595 was measured before the plates were gently washed one time with 200 μl tap water. This was repeated once. The plates were dried in room temperature before addition of 200 μl 0, 1% crystal violet (Sigma-Aldrich). After 30 minutes incubation in room temperature, the plates were washed twice with 200 μl tap water and once with 240 μl. This was followed by the addition of 200 μl ethanol:acetone (70:30 w:w) and incubated for another 10 minutes in room temperature. OD595 was measured in a microplate photometer (Multiscan EX) after the bound dye was dissolved using ethanol:acetone. For each strain, the result was calculated by subtracting the average OD595 of the two parallels of the control (test broth only) from the average OD595 of the two parallels of sample. Three independent experiments were performed. The average of the 6 strains as well as the average between the experiments was calculated.

Salmonella (one strain) = test: Effect of increased temperature on 1,3-cyclohexanedione: biofilm formation after heating the solution; type: cell-based; conditions: 72 hours at 20 °C
Protocol: The experiment was performed using 1,3-cyclohexanedione at a concentration of 1 mg/ml. One strain of Salmonella was used in this study. All strains were stored at −80° C. in BHI (Difco, BD, Franklin Lakes, N.J., USA) supplemented […] with 15% glycerine (Merck KGaA, Darmstadt, Germany) and were recovered on blood agar at 37.0±1.0° C. The bacterial culture was transferred into LB broth and was incubated statically overnight at 37.0±1.0° C. to obtain an overnight working culture. 1,3-cyclohexanedione was diluted in LB wo/NaCl at a concentration of 1 mg/ml and divided into 4 tubes. The tubes were heated, for two minutes, to 80° C., 90° C., 100° C. and the last tube was not heated and included as a control. 100 μl from each tube was added to a sterile 96-wells polystyrene microtiter plates (Nunc, Nuncleon, Roskilde, Denmark) together with 30 μl bacterial culture or 30 μl LB^wo/NaCl in the case of the blank controls. The plates were incubated for 72 hours at 20° C. The plate was emptied and washed twice using 200 μl tap water in each well each time. This was followed by the addition of 140 μl 1% Crystal violet to each well and, after 30 minutes, the plate was again emptied and washed 3 times using 200 μl tap water. 140 μl etanol:acetone 70:30 was added and OD595 was measured after 10 minutes. For each strain, the result was calculated by subtracting the median OD595 of the three parallels of the control (test broth only) from the median OD595 of the three parallels of sample. At least two experiments were performed and the average was estimated.

Structure (SMILES): O=C1CCCC(=O)C1 [1,3-cyclohexanedione]
- CFU in biofilm on stainless steel coupon ([1]; 1 mg/ml): decrease in biofilm formation; also recorded: significant decrease
- CFU in biofilm on stainless steel coupon ([1]; 10 mg/ml): could not detect any colony forming units; also recorded: no bacteria found in the biofilm
- decrease in biofilm formation in percentage of the control ([2]; 0.625 mg/ml): 27%
- decrease in biofilm formation in percentage of the control ([2]; 2.5 mg/ml): 40%
- decrease in biofilm formation in percentage of the control ([2]; 5 mg/ml): 53%
- decrease in biofilm formation in percentage of the control ([2]; 10 mg/ml): 70%
- decrease in biofilm formation compared to the control (Salmonella (one strain); 1 mg/ml solution heated to 80 °C for two minutes): 38%
- decrease in biofilm formation compared to the control (Salmonella (one strain); 1 mg/ml solution heated to 90 °C for two minutes): 40%
- decrease in biofilm formation compared to the control (Salmonella (one strain); 1 mg/ml solution heated to 100 °C for two minutes): 28%
- decrease in biofilm formation compared to the control (Salmonella (one strain); 1 mg/ml unheated solution): 46%
